{"source": "paper PMC7247319", "about": "“The mitochondria-targeted peptide SS-31 binds lipid bilayers and modulates surface electrostatics as a key component of its mechanism of action” (The Journal of Biological Chemistry, 2020)", "system": "mitoplasts from WT and Δcrd1 yeast", "experiment": "ANS-detected surface potential of mitoplasts", "set-up": "species or system Saccharomyces cerevisiae", "excerpt": "Figure 6. Interaction of SS-31 with isolated mitochondria. A, [ald]SS-31 binding with differing phospholipid composition. Left, percentages of total phospholipid of each species (phosphatidylcholine (PC), phosphatidylethanolamine (PE), cardiolipin (CL), monolyso-CL (MLCL), phosphatidylglycerol (PG), phosphatidic acid (PA), phosphatidylinositol (PI), phosphatidylserine (PS), and lysophosphatidylcholine (LPC)) in mitochondria from WT, Δtaz1, and Δcrd1 strains measured by shotgun lipidomics. Right, binding of 1 μM [ald]SS-31 with mitochondria isolated from WT, Δtaz1, and Δcrd1 yeast strains quantified as the mean fractional increase (F/F0) in aladan emission with increasing mitochondria concentration for fully energized mitochondria. Inset, relative binding of [ald]SS-31 to mitochondria (0.2 mg ml^−1) in the presence or absence of 1 μM valinomycin (val) as indicated. Values shown are means ± S.D. (error bars) (n = 3). B, comparison of [ald]SS-31 binding to mitochondria and model membranes. […]\nThe final goal of these experiments was to evaluate the effect of SS peptides on the surface electrostatic properties of mitochondrial membranes. […] We therefore compared the titration of mitoplasts with SS-31 and mono- and divalent cations (K^+ and Ca^2+, respectively) to evaluate the relative effects of each species on ANS-detected ψs (Fig. 6C). […]", "note": "Where a SMILES comes first, the peptide text is derived from it. [ ]: non-standard residue; d: D form. Dmt = Cc1cc(O)cc(C)c1C[C@H](N)C(=O)O", "data": [{"smiles": "Cc1cc(O)cc(C)c1C[C@H](NC(=O)[C@H](N)CCCNC(=N)N)C(=O)N[C@@H](CCCCN)C(=O)N[C@@H](Cc1ccccc1)C(N)=O", "note": "[SS-31, D-Arg-2′6′-dimethyl-Tyr-Lys-Phe-NH2] (H-[dR][Dmt]KF-NH2)", "values": [{"measurement": "effect of peptide addition prior to CaCl2 titration on Ca2+-mediated decrease in ψs", "setting": "WT mitoplasts, 20 μM SS-31 added before CaCl2", "value": "strongly blunted the effects of Ca^2+ on surface potential"}, {"measurement": "effect on ANS fluorescence (ψs) of mitoplasts", "setting": "titration of WT and Δcrd1 mitoplasts, n = 3", "value": "increase in ANS fluorescence"}]}]}
